The target of the assay is T1, dopamine D3 receptor (Homo sapiens, UniProt P35462).
T1 construct: expressed in transfected cells; host or cells: CHO cells (crude cell membranes)
The experiment in a line: Binding experiments on cloned dopamine receptors: displacement of [125I]-Iodosulpride. The settings on record: cloned human D3 receptor expressed in CHO cells, [125I]-Iodosulpride displacement; pKi accurate to about ±0.2-0.3. How it is done: Binding Experiments on Cloned Dopamine (e.g. D2, D3 and D4) Receptors
Cultures were grown as monolayers or in suspension in standard cell culture media. Cells were recovered by scraping (from monolayers) or by centrifugation (from suspension cultures), and were washed two or three times by suspension in phosphate buffered saline followed by collection by centrifugation. Cell pellets were stored frozen at −80° C. Crude cell membranes were prepared by homogenisation followed by high-speed centrifugation, and characterisation of cloned receptors achieved by radioligand binding.
Preparation of Cho Cell Membranes: Cell Pellets were Gently Thawed at Room temperature, and resuspended in about 20 volumes of ice-cold Extraction buffer; 5 mM EDTA, 50 mM Trizma pre-set crystals (pH7.4@37° C.), 1 mM MgCl2, 5 mM KCl and 120 mM NaCl. The suspension was homogenised using an Ultra-Turrax at full speed for 15 seconds. The homogenate was centrifuged at 18,000 r.p.m for 15 min at 4° C. in a Sorvall RC5C centrifuge. Supernatant was discarded, and homogenate re-suspended in extraction buffer then centrifugation was repeated. The final pellet was resuspended in 50 mM Trizma pre-set crystals (pH 7.4 @ 37° C.) and stored in 1 ml aliquot tubes at −80° C. (D2=3.0E+08 cells, D3=7.0E+07 cells and D4=1.0E+08 cells).
The total volume is 0.2 ml and incubated in a water bath at 37° C. for 40 minutes. Following incubation, samples were filtered onto GF/B Unifilters using a Can berra Packard Filtermate, and washed four times with ice-cold 50 mM Trizma pre-set crystals (pH 7.4 @ 37° C.). The radioactivity on the filters was measured using a Canberra Packard Topcount Scintillation counter. […] For competition curves, 10 serial log concentrations of competing cold drug were used (Dilution range: 10 μM-10 pM). Competition curves were analysed using Inflexion, an iterative curve fitting programme in Excel. Results were expressed as pKi values where pKi=−log 10 [Ki].

Molecules are shown by their SMILES. Counter-ions that a name gives are not always drawn.

T1 sequence (P35462 whole entry): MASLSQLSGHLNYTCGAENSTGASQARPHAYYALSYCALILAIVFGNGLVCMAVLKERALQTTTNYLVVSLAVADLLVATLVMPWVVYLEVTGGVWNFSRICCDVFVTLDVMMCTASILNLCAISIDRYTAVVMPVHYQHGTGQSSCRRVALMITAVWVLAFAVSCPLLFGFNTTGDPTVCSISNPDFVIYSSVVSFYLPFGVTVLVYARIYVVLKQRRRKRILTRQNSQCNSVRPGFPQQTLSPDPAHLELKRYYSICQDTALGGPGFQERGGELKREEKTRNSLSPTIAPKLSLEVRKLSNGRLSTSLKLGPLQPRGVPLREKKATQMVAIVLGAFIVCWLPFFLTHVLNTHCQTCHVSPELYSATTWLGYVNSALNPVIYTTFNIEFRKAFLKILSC

For orientation: Ki means a measure of affinity in units of concentration, obtained from inhibition or displacement. Turning to `Cc1ccc2cc(-c3nnc(CCCCN4CCc5ccc(-c6cc(C)on6)cc5CC4)n3C)ccc2n1` [Example 173, 7-(5-Methyl-3-isoxazolyl)-3-{4-[4-methyl-5-(2-methyl-6-quinolinyl)-4H-1,2,4-triazol-3-yl]butyl}-2,3,4,5-tetrahydro-1H-3-benzazepine hydrochloride], the Ki is 0.316 to 10 nM.

The compound `Cc1cc(-c2ccc3c(c2)CCN(CCCCSc2nnc(-c4ccc5ncccc5c4)n2C)CC3)no1` [Example 176, 7-(5-Methyl-3-isoxazolyl)-3-(4-{[4-methyl-5-(6-quinolinyl)-4H-1,2,4-triazol-3-yl]thio}butyl)-2,3,4,5-tetrahydro-1H-3-benzazepine] showed an inhibition constant Ki of 0.316 to 10 nM.

The values above are taken from US7429579B2, “Tetrahydrobenzazepine derivatives useful as modulators of dopamine D3 receptors (antipsychotic agents)” (SmithKline Beecham, PLC, priority 2000, dated 2008).
